In US8546085B2, “Methods of identifying modulators of the bitter taste receptor TAS2R44” (Givaudan SA, priority 2008, dated 2013):
Read-outs that look alike come from different tables or passages of the source.

Legend:
[1] = biological target: T1, TAS2R44 (Homo sapiens, UniProt P59538, L162M); experiment: Fluo-4 calcium assay, antagonists of the response of TAS2R44 to steviol glycosides; type: cell-based
T1 construct: The full length gene of human TAS2R44 was amplified by polymerase chain reaction (PCR) using gene-specific primers that span the entire coding region; RSS tag (first 45 amino acids of rat somatostatin receptor subtype 3, plus EcoRI site) (N); expressed in transfected cells; host or cells: HEK293T/Galpha16-gustducin 44 cells, stably transfected with pcDNA3.1Zeo-TAS2R44
T1 sequence (P59538 with tags, fused parts or gaps L162M): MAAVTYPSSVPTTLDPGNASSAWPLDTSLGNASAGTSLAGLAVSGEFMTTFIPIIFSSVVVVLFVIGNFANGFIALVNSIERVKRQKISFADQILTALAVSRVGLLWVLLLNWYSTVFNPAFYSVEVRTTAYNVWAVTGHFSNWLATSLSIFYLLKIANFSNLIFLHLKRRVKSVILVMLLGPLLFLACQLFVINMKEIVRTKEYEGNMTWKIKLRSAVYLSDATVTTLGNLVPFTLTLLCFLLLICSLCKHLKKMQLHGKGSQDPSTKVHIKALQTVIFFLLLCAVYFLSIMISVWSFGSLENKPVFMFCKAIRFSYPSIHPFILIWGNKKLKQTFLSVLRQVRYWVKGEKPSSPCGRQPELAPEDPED
Protocol: All cells were HEK293T cells stably expressing Gα16-gustducin44, or expressing Gα16-gustducin44 and TAS2R44.
The method was carried out as described in example 3 subject to the following modifications:
The samples were tested with and without candidate bitter blocker and the signals were compared. The candidate bitter blocker was dissolved in dimethylsulfoxide (DMSO), and a negative control with equivalent DMSO concentration (0.02%) was performed accordingly to exclude a potential inhibitory effect of the solvent. Furthermore, a control with the relevant steviol glycoside and DMSO (0.02%) was performed accordingly (see table in example 5).
All data was calculated as ΔF/F0 and the standard deviation (STD) is indicated in each table, see results for the identified bitter blocker 4-(2,2,3-trimethyl-cyclopentyl)-butanoic acid below.

[2] = system: bitter taste/aftertaste of Rebaudioside A; experiment: Sensory evaluation of bitter blocking by 8 bitter-sensitive panelists; type: in vivo, human
Protocol: 4-(2,2,3-trimethyl-cyclopentyl)-butanoic acid was sensorically evaluated for its bitter blocking characteristics by 8 bitter-sensitive panelists.
The following samples in water were evaluated and compared in their bitter taste/aftertaste: • Rebaudioside A (60 ppm) with bitter blocker (10 ppm) • Rebaudioside A (60 ppm) without bitter blocker • Rebaudioside A (230 ppm, isosweet to 7% sugar in water) • Rebaudioside A (230 ppm) with bitter blocker (10 ppm 30 ppm and 50 ppm)
20 ml of each sample was presented in random order.

TAS2R44 ΔF/F0 ([1]; 0.7 mM rebaudioside A (EC50) + bitter blocker 0.098 μM): 0.4022 | TAS2R44 ΔF/F0 ([1]; 0.7 mM rebaudioside A (EC50) + bitter blocker 0.195 μM): 0.3678 | TAS2R44 ΔF/F0 ([1]; 0.7 mM rebaudioside A (EC50) + bitter blocker 0.391 μM): 0.2825 | TAS2R44 ΔF/F0 ([1]; 0.7 mM rebaudioside A (EC50) + bitter blocker 0.781 μM): 0.2156 | TAS2R44 ΔF/F0 ([1]; 0.7 mM rebaudioside A (EC50) + bitter blocker 1.563 μM): 0.1328 | TAS2R44 ΔF/F0 ([1]; 0.7 mM rebaudioside A (EC50) + bitter blocker 3.125 μM): 0.1225 | TAS2R44 ΔF/F0 ([1]; 0.7 mM rebaudioside A (EC50) + bitter blocker 6.250 μM): 0.1794 | TAS2R44 ΔF/F0 ([1]; 0.7 mM rebaudioside A (EC50) + bitter blocker 12.50 μM): 0.2056 | TAS2R44 ΔF/F0 ([1]; 0.7 mM rebaudioside A (EC50) + bitter blocker 25.00 μM): 0.2275 | TAS2R44 ΔF/F0 ([1]; 0.7 mM rebaudioside A (EC50) + bitter blocker 50.00 μM): 0.2347 | TAS2R44 ΔF/F0 ([1]; 0.7 mM rebaudioside A (EC50) + bitter blocker 100.0 μM): 0.2238 | TAS2R44 ΔF/F0 ([1]; 2.2 mM stevioside (EC50) + bitter blocker 0.098 μM): 0.665 | TAS2R44 ΔF/F0 ([1]; 2.2 mM stevioside (EC50) + bitter blocker 0.195 μM): 0.596 | TAS2R44 ΔF/F0 ([1]; 2.2 mM stevioside (EC50) + bitter blocker 0.391 μM): 0.555 | TAS2R44 ΔF/F0 ([1]; 2.2 mM stevioside (EC50) + bitter blocker 0.781 μM): 0.491 | TAS2R44 ΔF/F0 ([1]; 2.2 mM stevioside (EC50) + bitter blocker 1.563 μM): 0.431 | TAS2R44 ΔF/F0 ([1]; 2.2 mM stevioside (EC50) + bitter blocker 3.125 μM): 0.430 | TAS2R44 ΔF/F0 ([1]; 2.2 mM stevioside (EC50) + bitter blocker 6.250 μM): 0.328 | TAS2R44 ΔF/F0 ([1]; 2.2 mM stevioside (EC50) + bitter blocker 12.50 μM): 0.293 | TAS2R44 ΔF/F0 ([1]; 2.2 mM stevioside (EC50) + bitter blocker 25.00 μM): 0.252 | TAS2R44 ΔF/F0 ([1]; 2.2 mM stevioside (EC50) + bitter blocker 50.00 μM): 0.238 | TAS2R44 ΔF/F0 ([1]; 2.2 mM stevioside (EC50) + bitter blocker 100.0 μM): 0.212 | IC50 ([1]; inhibition of the response to 0.7 mM rebaudioside A, read-out: IC50 concentration for rebaudioside): 357 nM | IC50 ([1]; inhibition of the response to 2.2 mM stevioside, read-out: IC50 concentration for stevioside): 578 nM
SMILES: CC1CCC(CCCC(=O)O)C1(C)C (centres unmarked) [4-(2,2,3-trimethyl-cyclopentyl)-butanoic acid]
effect on bitterness of Rebaudioside A ([2]; 10 ppm bitter blocker, in water): blocked the upfront bitterness but some lingering bitterness/aftertaste remained | effect on bitterness of Rebaudioside A ([2]; 30 ppm bitter blocker, Rebaudioside A 230 ppm in water): improved effect to reduce the lingering bitterness/bitter aftertaste | effect on bitterness of Rebaudioside A ([2]; 50 ppm bitter blocker, Rebaudioside A 230 ppm in water): improved effect to reduce the lingering bitterness/bitter aftertaste | effect on bitterness of Rebaudioside A ([2]; 60 ppm, in water): completely blocked the bitterness including the bitter aftertaste | effect on bitter taste/aftertaste of Rebaudioside A ([2]; all panelists, samples in water): blocked or significantly reduced the bitter taste/aftertaste
